Measurements from patent US7598275B2, “Nicotine in therapeutic angiogenesis and vasculogenesis” (priority 1999, dated 2009).

Assays:
[1] = tested on: endothelial cells; assay: Endothelial cell (EC) migration assay; type: cell-based
Description: In this experiment, the effects of VEGF, FGF and nicotine in an endothelial cell (EC) migration assay were observed. The EC migration assay involves growing a confluent endothelial monolayer, and then scraping away half of the cells. The number of endothelial cells that migrate over time into the denuded region was observed. Unstimulated cells will migrate into the region. Angiogenic agents will accelerate this migration.
In this histogram shown in FIG. 8, the number of migrating cells is expressed as a percentage of the number of endothelial cells migrating into the region under unstimulated conditions.

[2] = tested on: C57BL/6J mice; assay: Disc angiogenesis system (DAS), fibrovascular growth into implanted disc; type: in vivo; conditions: for angiogenesis in comparison to vehicle: locally in disc pellet: bFGF 20 mcg, Del-1 0.2 M, nicotine 10^-6 M; for effect on nicotine-induced fibrovascular growth (systemic nicotine) / effect on nicotine-induced fibrovascular growth (local nicotine): oral supplementation: LNNA 6 mg/ml, indomethacin 20 mcg/ml; for effect on nicotine-induced fibrovascular growth (systemic nicotine): nicotine in drinking water; for effect on nicotine-induced fibrovascular growth (local nicotine): nicotine inside the DAS
Description: To study whether nicotine induces angiogenesis in vivo, we employed the disc angiogenesis system (DAS) (Kowalski et al. (1992) Exp Mol Pathol 56(1):1-19; Fajardo et al. (1998) Lab Invest 58:718-7244).
Preparation of the disc. The DAS consisted of a disc (11 mm in diameter and 1 mm thickness) made of a polyvinyl alcohol sponge (Kanebo PVA, RippeyCo., Santa Clara, Calif.). Both sides were covered with nitrocellulose cell-impermeable filters (Millipore filters, […] in pore diameter, Millipore, SF, Calif.) of the same diameter as the sponge disc, fixed to the sponge using Millipore glue#1 (xx70000.00, Millipore). As a result, cells (and thus vessels) could penetrate or exit only through the rim of the disc (Kowalski et al. (1992) Exp Mol Pathol 56(1):1-19; Fajardo et al. (1998) Lab Invest 58:718-7244).
In order to study the local effect of nicotine on angiogenesis, nicotine was placed in a pellet which was added directly to the disc. Briefly, a 1.5-mm core (pellet) was cut from the disc center. Both the pellets and discs were sterilized prior to assembly in a laminar flow hood. The pellet was loaded with up to 20 mcl of the nicotine solution and subsequently air-dried. We placed in the disc pellets with either vehicle (PBS, Sigma, Chemical Co., St Louis, Mo., n=5) or nicotine (10^-6 M, Aldrich Chemical Company, Milwaukee, Wis., n=5) to study the effects of locally administered nicotine. For comparison, in some cases basic fibroblast growth factor (bFGF; 20 mcg) or Del-1 protein (0.2 M) was added to the pellet, rather than nicotine. Both bFGF and Del-1 are known to induce angiogenesis. The pellet was then coated with ethylene-vinyl acetate co-polymer (Elvax, Dupont, Chemcentral Corp., Chicago, Ill.) which would permit slow release of the nicotine from the pellet into the disc. The pellet was then re-inserted into the disc before sealing the disc with the millipore filters.
To study the systemic effects of nicotine, in some cases the animals were administered nicotine in their drinking water (see below).
Implantation of the disc. The mice were anesthetized with 4% chloralhydrate [intraperitoneal administration (i.p.), 0.1 cc/10 g body weight]. The flanks and posterior surface of the thorax were shaved and cleaned with saturated 70% isopropyl alcohol. A 2-cm incision was made in the skin of the flank contra-lateral to the implantation site. Blunt dissection through the subcutaneous tissue produced a channel into which the saline moistened disc was inserted. The skin was closed with 5.0 silk suture (Kowalski et al. (1992) Exp Mol Pathol 56(1):1-19; Fajardo et al. (1998) Lab Invest 58:718-7244).
Disc removal and preparation. Two weeks after disc implantation, the mice were sacrificed with an overdose of 4% chloral hydrate (i.p.) and cervical dislocation. A careful incision was made next to the skin overlying the implanted disc, and the disc was gently removed from the implantation site. Attached tissue was carefully detached from the disc. After removing the disc, one filter was separated from the disc. Discs were then fixed in 10% formalin and embedded flat in paraffin. Subsequently, […] sections were made in a plane through the center of the disc and parallel to the disc surface.
Quantitation of results. The disc sections were stained with H&E for light microscopy and histomorphometric measurement of radial growth, and stained with toluidine blue for quantitative determination of total area of fibrovascular growth. Using a video microscope and a computer assisted digital image analysis system (NIH Image 1.59b9), the entire area of fibrovascular growth in the toluidine blue stained disc was calculated and expressed in mm^2. As described in a previous study, total fibrovascular growth area is directly proportional to the total area of the disc occupied by blood vessels (Kowalski et al. (1992) Exp Mol Pathol 56(1):1-19; Fajardo et al. (1998) Lab Invest 58:718-7244).

[3] = tested on: C57BL/6J mice
Experimental: Murine Ischemic Hindlimb Model of Peripheral Arterial Disease (PAD). Mice were anesthetized with 4% chloral hydrate [intraperitoneal administration (i.p.), 0.1 cc/10 g body weight). The medial surface of both hindlimbs were shaved and then cleaned with betadine solution. A 1.5-cm longitudinal incision was performed, extending from the knee to the inguinal ligament. Through this incision, the superficial femoral artery was dissected free along its length. After the distal ends of both the external iliac and superficial femoral arteries were ligated with 7.0 (Ethicon), complete excision of the femoral artery was performed. An additional set of mice underwent sham operation. The incisions were then closed with discontinuous stitches of 5.0 silk suture (Ethicon). Ampicillin (1 mg/10 gm body weight) intraperitoneal injection was administered after surgical procedure.
Tissue Preparation. Three weeks after surgery, mice were euthanized with an overdose of 4% chloral hydrate (i.p) and cervical dislocation, and the adductor and semimembranous muscles were collected for capillary density assessment. Briefly, a longitudinal incision in the medial thigh was made to expose the entire hindlimb muscle. The adductor and semimembranous muscles were removed and immediately frozen in OCT. Subsequently, sections 5 μm were taken from the mid-region of each muscle in a transverse orientation. The sections were air dried and fixed in acetone.
Capillary Densitometry. Immunohistochemistry was performed using an alkaline phosphatase assay to identify the endothelial cells. An eosin counterstain was used to differentiate myocytes. Capillaries and myocytes were identified and counted using light microscopy (20×). For each section, four different fields were selected and the total number of capillaries and myocytes per field determined. These values were averaged to provide a determination of capillary density for each experimental limb. To ensure that value for capillary density was not overestimated due to muscle atrophy, or underestimated due to interstitial edema, capillary density was expressed as a ratio of capillaries to myocytes present in the same field.
Daily intramuscular injections of nicotine solution or vehicle were administered (50 μl ) for a period of three weeks.

[4] = VEGF 1 ng/ml, FGF, nicotine (FIG. 8)
[5] = highest dose (3200 ng/kg = 3.2 μg/kg) i.m. daily for three weeks

VEGF
EC migration, number of migrating cells relative to unstimulated conditions [1, 4]: increases EC migration to the same degree as FGF or Nicotine | EC migration, number of migrating cells relative to unstimulated conditions ([1]; high dose VEGF 10 ng/ml): greatest response

CN1CCC[C@H]1c1cccnc1 [nicotine, S-3-(1-methyl-2-pyrrolidinyl)pyridine]
angiogenic potency relative to growth factors tested in DAS (Del1, bFGF) ([2]; local effects in the disc angiogenesis system): as or more potent | area of fibrovascular growth into the disc ([2]; local nicotine, 10^-6 M in pellet inside the disc, basal about 10 mm^2): about 20 mm^2 | angiogenesis in comparison to vehicle [2]: increased angiogenesis to the same degree | angiogenesis, systemic versus local nicotine administration ([2]; systemic nicotine (drinking water) compared with nicotine in disc): greater than local nicotine administration | angiogenesis, systemic administration versus locally administered bFGF and Del-1 ([2]; systemic nicotine (drinking water), FIG. 4): much greater degree | area of fibrovascular growth into the disc ([2]; systemic nicotine, 60 mcg/ml in drinking water, disc removed two weeks after implantation, basal somewhat greater than 10 mm^2): 35 mm^2 | capillary density in the ischemic limb ([3]; 0.03 μg/kg i.m. daily for three weeks, vehicle control 0.35): 0.67 capillaries/myocyte | angiogenic response in the ischemic limb at the highest dose [3, 5]: angiogenesis was not increased | toxicity at the highest dose (interstitial edema and myocyte necrosis) [3, 5]: some toxicity was observed | angiogenic effect in non-ischemic hindlimbs ([3]; untreated non-ischemic limb of animals given i.m. nicotine in the ischemic limb): no angiogenic effect was detected | EC migration, number of migrating cells relative to unstimulated conditions [1, 4]: same degree

NC(=NCCC[C@H](N)C(=O)O)N[N+](=O)[O-] [LNNA, L, nitro-arginine]
effect on nicotine-induced fibrovascular growth (systemic nicotine) [2]: blocked | effect on nicotine-induced fibrovascular growth (local nicotine) [2]: blocked the effects of nicotine

CN(C)C(=O)Oc1cccc([N+](C)(C)C)c1 [neostigmine]
increase of EC migration ([1]; 10^−6 M alone, relative to unstimulated cells): over 50%

bFGF: basic fibroblast growth factor, known to induce angiogenesis
angiogenesis in comparison to vehicle [2]: increased angiogenesis to the same degree

COc1ccc2c(c1)c(CC(=O)O)c(C)n2C(=O)c1ccc(Cl)cc1 [indomethacin]
effect on nicotine-induced fibrovascular growth (systemic nicotine) [2]: blocked | effect on nicotine-induced fibrovascular growth (local nicotine) [2]: blocked the effects of nicotine

B1: Del1: Del-1 protein, known to induce angiogenesis (protein, UniProt O43854 24-480, looked up)
EGF-like repeat and discoidin …: DICDPNPCENGGICLPGLADGSFSCECPDGFTDPNCSSVVEVASDEEEPTSAGPCTPNPCHNGGTCEISEAYRGDTFIGYVCKCPRGFNGIHCQHNINECEVEPCKNGGICTDLVANYSCECPGEFMGRNCQYKCSGPLGIEGGIISNQQITASSTHRALFGLQKWYPYYARLNKKGLINAWTAAENDRWPWIQINLQRKMRVTGVITQGAKRIGSPEYIKSYKIAYSNDGKTWAMYKVKGTNEDMVFRGNIDNNTPYANSFTPPIKAQYVRLYPQVCRRHCTLRMELLGCELSGCSEPLGMKSGHIQDYQITASSIFRTLNMDMFTWEPRKARLDKQGKVNAWTSGHNDQSQWLQVDLLVPTKVTGIITQGAKDFGHVQFVGSYKLAYSNDGEHWTVYQDEKQRKDKVFQGNFDNDTHRKNVIDPPIYARHIRILPWSWYGRITLRSELLGCTEEE
angiogenesis in comparison to vehicle [2]: increased angiogenesis to the same degree
